Literature values, collected in patent publication US6432966B1, “Antiviral combinations” (SmithKline Beecham Corporation, priority 1999, dated 2002).

Experiments:
[1] = tested on: HBV
[2] = tested on: HBV; details: in vitro
[3] = tested on: Hepatitis B virus; details: oral, woodchucks

SMILES | patients maintaining undetectable levels of virus ([1]; through to the end of the second year) | levels of viral replication in patients ([1]; two year study) | anti-HBV activity [2] | efficacy against Hepatitis B virus [3]
Nc1ccn([C@@H]2CS[C@H](CO)O2)c(=O)n1 (relative stereo) [lamivudine, (2R,cis)-4-amino-1-(2-hydroxymethyl-1,3-oxathiolan-5-yl)-pyrimidin-2-one] | 52% | most patients showed substantially reduced levels of viral replication |  | 
C=C1[C@H](CO)[C@@H](O)C[C@@H]1n1cnc2c(=O)[nH]c(N)nc21 [BMS-200475] |  |  | anti-HBV activity in vitro | effective against Hepatitis B virus in woodchucks
